Experimental data reported in US12227490B2, “Cereblon binding compounds, compositions thereof, and methods of treatment therewith” (Celgene Corporation, priority 2020, dated 2025).
Structures can show the parent of a compound that is named as a salt.

Target: T1, AR (androgen receptor) protein in VCaP cells (Homo sapiens, UniProt P10275)
T1 construct: endogenous in cells; host or cells: VCaP cells
T1 sequence (P10275 1-920): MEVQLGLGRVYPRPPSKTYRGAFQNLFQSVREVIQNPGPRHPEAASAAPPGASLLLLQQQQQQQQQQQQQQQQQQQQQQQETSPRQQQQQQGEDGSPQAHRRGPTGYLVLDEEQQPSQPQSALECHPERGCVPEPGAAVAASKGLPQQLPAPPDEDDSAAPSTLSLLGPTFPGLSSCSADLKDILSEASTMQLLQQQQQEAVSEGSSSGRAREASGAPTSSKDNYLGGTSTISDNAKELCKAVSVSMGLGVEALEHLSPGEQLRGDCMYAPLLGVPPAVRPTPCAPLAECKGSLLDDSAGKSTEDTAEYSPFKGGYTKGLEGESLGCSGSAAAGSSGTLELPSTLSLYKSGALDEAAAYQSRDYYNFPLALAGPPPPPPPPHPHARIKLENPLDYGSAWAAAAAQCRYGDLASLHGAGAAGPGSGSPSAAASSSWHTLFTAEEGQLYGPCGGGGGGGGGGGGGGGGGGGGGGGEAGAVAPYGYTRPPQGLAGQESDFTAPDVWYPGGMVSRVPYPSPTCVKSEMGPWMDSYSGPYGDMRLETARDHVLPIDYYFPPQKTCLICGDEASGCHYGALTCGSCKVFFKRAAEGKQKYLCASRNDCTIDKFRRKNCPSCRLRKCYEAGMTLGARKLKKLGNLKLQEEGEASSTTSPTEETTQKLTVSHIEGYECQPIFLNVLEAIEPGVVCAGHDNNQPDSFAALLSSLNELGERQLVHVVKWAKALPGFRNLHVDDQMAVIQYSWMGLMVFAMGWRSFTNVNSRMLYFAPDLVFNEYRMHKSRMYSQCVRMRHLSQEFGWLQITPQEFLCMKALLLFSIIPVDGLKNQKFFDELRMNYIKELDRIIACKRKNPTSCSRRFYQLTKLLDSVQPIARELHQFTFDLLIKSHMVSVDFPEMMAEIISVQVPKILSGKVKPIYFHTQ
Experiment: VCAP AR Degradation Assay
Assay type: cell-based
Settings: 24 h, AR ELISA; for DC50: concentration of compound when AR level = 50% of DMSO control; for remaining activity at up to 5 µM: top concentration 5 μM, read-out: Y (lowest measured AR level normalized to DMSO control, AR degradation efficiency)
Method: VCAP AR Degradation Assay. Test compounds were pre-dispensed into a Corning CellBind 96-well clear bottom plate (Cat #3300) using an acoustic dispenser to make a 10-point concentration series at 1:3 dilution for each compound. The final top concentration of each compound was 5 μM. DMSO at a final concentration of 0.1% was used as a control. VCaP cells cultured in DMEM with 8% fetal bovine serum (FBS) were seeded at 50K cells per well in a 200 μL volume into the compound plate and incubated at 37° C. in a CO2 incubator for 24 h. The medium was carefully removed from the cells and the plate was placed on ice. One hundred μL of ice-cold 1× cell lysis buffer from Cell Signaling Technologies (Cat #9803) was added to each well of the cells and the plate was incubated at 4° C. on a shaker for 1 h. Fifteen μL of cell lysate was used for AR ELISA detection using a PathScan Total Sandwich AR ELISA kit (Cell Signaling Technology, Cat #12580). AR levels in compound-treated wells were normalized to that of DMSO control and expressed as percent of control (PoC) (y). A Four Parameter Logistic Model (Sigmoidal Dose-Response Model) was used to determine the compound's DC50, and EC50, using the following equation: y=(A+((B−A)/(1+((C/x)^D)))) • A=YMin (lowest AR level normalized to DMSO control in response to compound treatment, as determined by curve fit) • B=YMax (maximum AR level as determined by curve fit) • C=EC50 • D=Hill Slope • x=compound concentration • EC50=the concentration of compound when y=(YMax−YMin)/2 • DC50=the concentration of the compound when y=50% of DMSO control (50% AR degradation) • y=AR protein level normalized to DMSO control
The lowest measured AR level normalized to DMSO control in response to compound treatment, termed Y value, was used to characterize the compound-mediated AR degradation efficiency.

SMILES	DC50	remaining activity at up to 5 µM
C[C@@H]1C[C@H](CCO[C@H]2CC[C@H](N3C(=S)N(c4ccc(C#N)c(C(F)(F)F)c4)C(=O)C3(C)C)CC2)C[C@H](C)N1CC(=O)Nc1cccc2c(C3CCC(=O)NC3=O)nn(C)c12 (stereo partly drawn) [Cmpd 13, 2-((2R,4r,6S)-4-(2-((trans-4-(3-(4-Cyano-3-(trifluoromethyl)phenyl)-5,5-dimethyl-4-oxo-2-thioxoimidazolidin-1-yl)cyclohexyl)oxy)ethyl)-2,6-dimethylpiperidin-1-yl)-N-(3-(2,6-dioxopiperidin-3-yl)-1-methyl-1H-indazol-7-yl)acetamide hydrochloride]	2 to 5 nM	0 to 25%
Cn1nc(C2CCC(=O)NC2=O)c2cccc(NC(=O)CN3CCN(CCO[C@H]4CC[C@H](N5C(=S)N(c6ccc(C#N)c(C(F)(F)F)c6)C(=O)C5(C)C)CC4)C[C@@H]3C(F)(F)F)c21 (stereo partly drawn) [Cmpd 14, 2-((R)-4-(2-((trans-4-(3-(4-Cyano-3-(trifluoromethyl)phenyl)-5,5-dimethyl-4-oxo-2-thioxoimidazolidin-1-yl)cyclohexyl)oxy)ethyl)-2-(trifluoromethyl)piperazin-1-yl)-N-(3-(2,6-dioxopiperidin-3-yl)-1-methyl-1H-indazol-7-yl)acetamide hydrochloride]	< 2 nM	0 to 25%
C[C@@H]1C[C@H](CCO[C@H]2CC[C@H](N3C(=S)N(c4cnc(C#N)c(C(F)(F)F)c4)C(=O)C3(C)C)CC2)C[C@H](C)N1CC(=O)Nc1cccc2c(C3CCC(=O)NC3=O)nn(C)c12 (stereo partly drawn) [Cmpd 15, 2-((2R,4r,6S)-4-(2-(((trans)-4-(3-(6-Cyano-5-(trifluoromethyl)pyridine-3-yl)-5,5-dimethyl-4-oxo-2-thioxoimidazolidin-1-yl)cyclohexyl)oxy)ethyl)-2,6-dimethylpiperidin-1-yl)-N-(3-(2,6-dioxopiperidin-3-yl)-1-methyl-1H-indazol-7-yl)acetamide]	< 2 nM	0 to 25%
C[C@@H]1C[C@@H](CCO[C@H]2CC[C@H](N3C(=S)N(c4cnc(C#N)c(C(F)(F)F)c4)C(=O)C3(C)C)CC2)C[C@H](C)N1CC(=O)Nc1cccc2c(C3CCC(=O)NC3=O)nn(C)c12 (stereo partly drawn) [Cmpd 16, 2-((2R,4s,6S)-4-(2-(((trans)-4-(3-(6-Cyano-5-(trifluoromethyl)pyridin-3-yl)-5,5-dimethyl-4-oxo-2-thioxoimidazolidin-1-yl)cyclohexyl)oxy)ethyl)-2,6-dimethylpiperidin-1-yl)-N-(3-(2,6-dioxopiperidin-3-yl)-1-methyl-1H-indazol-7-yl)acetamide]	< 2 nM	0 to 25%
Cn1nc(C2CCC(=O)NC2=O)c2cccc(NC(=O)CN3CCN(CCC[C@H]4CC[C@H](N5C(=S)N(c6cnc(C#N)c(C(F)(F)F)c6)C(=O)C5(C)C)CC4)C[C@@H]3C(F)(F)F)c21 (stereo partly drawn) [Cmpd 17, 2-((R)-4-(3-((trans)-4-(3-(6-Cyano-5-(trifluoromethyl)pyridin-3-yl)-5,5-dimethyl-4-oxo-2-thioxoimidazolidin-1-yl)cyclohexyl)propyl)-2-(trifluoromethyl)piperazin-1-yl)-N-(3-(2,6-dioxopiperidin-3-yl)-1-methyl-1H-indazol-7-yl)acetamide]	2 to 5 nM	0 to 25%
Cn1nc(C2CCC(=O)NC2=O)c2cccc(NC(=O)CN3CCN(CCC[C@H]4CC[C@H](N5C(=S)N(c6ccc(C#N)c(C(F)(F)F)c6)C(=O)C5(C)C)CC4)C[C@@H]3C(F)(F)F)c21 (stereo partly drawn) [Cmpd 18, 2-((R)-4-(3-((trans)-4-(3-(4-Cyano-3-(trifluoromethyl)phenyl)-5,5-dimethyl-4-oxo-2-thioxoimidazolidin-1-yl)cyclohexyl)propyl)-2-(trifluoromethyl)piperazin-1-yl)-N-(3-(2,6-dioxopiperidin-3-yl)-1-methyl-1H-indazol-7-yl)acetamide]	5 to 20 nM	25 to 30%
C[C@@H]1CN(CCCC[C@H]2CC[C@H](N3C(=S)N(c4ccc(C#N)c(C(F)(F)F)c4)C(=O)C3(C)C)CC2)C[C@H](C)N1CC(=O)Nc1cccc2c(C3CCC(=O)NC3=O)nn(C)c12 (stereo partly drawn) [Cmpd 19, 2-((2S,6R)-4-(4-((trans)-4-(3-(4-Cyano-3-(trifluoromethyl)phenyl)-5,5-dimethyl-4-oxo-2-thioxoimidazolidin-1-yl)cyclohexyl)butyl)-2,6-dimethylpiperazin-1-yl)-N-(3-(2,6-dioxopiperidin-3-yl)-1-methyl-1H-indazol-7-yl)acetamide]	2 to 5 nM	0 to 25%
Cn1nc(C2CCC(=O)NC2=O)c2cccc(NC(=O)CN3CCN(CCCO[C@H]4CC[C@H](N5C(=S)N(c6cnc(C#N)c(C(F)(F)F)c6)C(=O)C5(C)C)CC4)C[C@@H]3C(F)(F)F)c21 (stereo partly drawn) [Cmpd 20, 2-((R)-4-(3-(((trans)-4-(3-(6-Cyano-5-(trifluoromethyl)pyridin-3-yl)-5,5-dimethyl-4-oxo-2-thioxoimidazolidin-1-yl)cyclohexyl)oxy)propyl)-2-(trifluoromethyl)piperazin-1-yl)-N-(3-(2,6-dioxopiperidin-3-yl)-1-methyl-1H-indazol-7-yl)acetamide]	2 to 5 nM	0 to 25%
Cn1nc(C2CCC(=O)NC2=O)c2cccc(NC(=O)CN3CCN(CCCO[C@H]4CC[C@H](N5C(=S)N(c6ccc(C#N)c(C(F)(F)F)c6)C(=O)C5(C)C)CC4)C[C@@H]3C(F)(F)F)c21 (stereo partly drawn) [Cmpd 21, 2-((R)-4-(3-(((trans)-4-(3-(4-Cyano-3-(trifluoromethyl)phenyl)-5,5-dimethyl-4-oxo-2-thioxoimidazolidin-1-yl)cyclohexyl)oxy)propyl)-2-(trifluoromethyl)piperazin-1-yl)-N-(3-(2,6-dioxopiperidin-3-yl)-1-methyl-1H-indazol-7-yl)acetamide]	< 2 nM	0 to 25%
Cn1nc(C2CCC(=O)NC2=O)c2cccc(NC(=O)CN3CCN(CCO[C@H]4CC[C@H](N5C(=S)N(c6cnc(C#N)c(C(F)(F)F)c6)C(=O)C5(C)C)CC4)C[C@@H]3C(F)(F)F)c21 (stereo partly drawn) [Cmpd 22, 2-((R)-4-(2-(((trans)-4-(3-(6-Cyano-5-(trifluoromethyl)pyridin-3-yl)-5,5-dimethyl-4-oxo-2-thioxoimidazolidin-1-yl)cyclohexyl)oxy)ethyl)-2-(trifluoromethyl)piperazin-1-yl)-N-(3-(2,6-dioxopiperidin-3-yl)-1-methyl-1H-indazol-7-yl)acetamide]	< 2 nM	0 to 25%
C[C@@H]1C[C@H](OCCC[C@H]2CC[C@H](N3C(=S)N(c4ccc(C#N)c(C(F)(F)F)c4)C(=O)C3(C)C)CC2)C[C@H](C)N1CC(=O)Nc1cccc2c(C3CCC(=O)NC3=O)nn(C)c12 (stereo partly drawn) [Cmpd 23, 2-((2R,4r,6S)-4-(3-((trans)-4-(3-(4-Cyano-3-(trifluoromethyl)phenyl)-5,5-dimethyl-4-oxo-2-thioxoimidazolidin-1-yl)cyclohexyl)propoxy)-2,6-dimethylpiperidin-1-yl)-N-(3-(2,6-dioxopiperidin-3-yl)-1-methyl-1H-indazol-7-yl)acetamide]	20 to 100 nM	0 to 25%
